Data as given in PubChem BioAssay AID330 (DTP/NCI, 2004).
Values joined by “and” are separate entries in the source; they are usually repeats but may differ in a detail not shown here. Equal values may be shown once. Toxic doses and inconclusive results are not listed.

Tested on: P388 leukemia ip, CD2F1 mice, survival T/C
Assay: NCI In Vivo Anticancer Drug Screen. Data for tumor model P388 Leukemia (intraperitoneal) in CD2F1 (CDF1) mice
Conditions: endpoint: median survival time, higher = longer survival
In short: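 Mice carrying the transplanted tumor received test compound or vehicle. Survival was recorded in each group, and the value is the treated-group measurement divided by that of the vehicle-treated control group.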

[1] = dose: 50.0 mg/kg/injection, schedule: Q01DX009 (ip), vehicle: Klucel (hydroxypropylcellulose) (HPC)
[2] = dose: 60.0 mg/kg/injection, schedule: Q01DX005 (ip), vehicle: saline with Tween-80
[3] = dose: 120.0 mg/kg/injection, schedule: Q01DX005 (ip), vehicle: saline with Tween-80
[4] = dose: 240.0 mg/kg/injection, schedule: Q01DX005 (ip), vehicle: saline with Tween-80
[5] = dose: 50.0 mg/kg/injection, schedule: Q01DX009 (ip), vehicle: saline with Tween-80
[6] = dose: 100.0 mg/kg/injection, schedule: Q01DX009 (ip), vehicle: saline with Tween-80

For `Cn1cc(-n2[nH]c(=O)n(-c3ccccc3)c2=O)c(=O)n(C)c1=O`, the T/C [1] was 101 % of control, the T/C (dose: 100.0 mg/kg/injection, schedule: Q01DX009 (ip), vehicle: Klucel (hydroxypropylcellulose) (HPC)) was 101 % of control and the T/C (dose: 200.0 mg/kg/injection, schedule: Q01DX009 (ip), vehicle: Klucel (hydroxypropylcellulose) (HPC)) was 96 % of control.

`C=C(C)C(=NC(C)(C)C)N1CCCCC1` was tested, and the T/C (dose: 50.0 mg/kg/injection, schedule: Q01DX005 (ip), vehicle: Klucel (hydroxypropylcellulose) (HPC)) was 100 % of control and the T/C (dose: 100.0 mg/kg/injection, schedule: Q01DX005 (ip), vehicle: Klucel (hydroxypropylcellulose) (HPC)) was 102 % of control.

With `CCCCCCCCCCCCOC(=O)CN=C=O` the T/C (dose: 50.0 mg/kg/injection, schedule: Q01DX009 (ip), vehicle: saline) was 100 % of control and 101 % of control, the T/C (dose: 100.0 mg/kg/injection, schedule: Q01DX009 (ip), vehicle: saline) was 100 % of control and the T/C (dose: 200.0 mg/kg/injection, schedule: Q01DX009 (ip), vehicle: saline) was 107 % of control and 89 % of control.

`COc1ccc2c(c1)N(CCC1CCCCN1C)c1ccccc1S2` (centres undefined) was tested, and the T/C (dose: 12.5 mg/kg/injection, schedule: Q04DX003 (ip), vehicle: saline) was 116 % of control, the T/C (dose: 25.0 mg/kg/injection, schedule: Q04DX003 (ip), vehicle: saline) was 115 % of control and the T/C (dose: 50.0 mg/kg/injection, schedule: Q04DX003 (ip), vehicle: saline) was 119 % of control.

For `[O-]/[N+]1=[N+](\[O-])c2ccccc2COCc2ccccc21`, the T/C [2] was 96 % of control, the T/C [3] was 93 % of control and the T/C [4] was 89 % of control.

`Clc1cncc(N2CCNCC2)n1` was tested, and the T/C (dose: 12.5 mg/kg/injection, schedule: Q01DX009 (ip), vehicle: Klucel (hydroxypropylcellulose) (HPC)) was 100 % of control, the T/C (dose: 25.0 mg/kg/injection, schedule: Q01DX009 (ip), vehicle: Klucel (hydroxypropylcellulose) (HPC)) was 99 % of control and the T/C [1] was 108 % of control and 91 % of control.

With `C(#CC1CO1)CCCC#CC1CO1` (centres undefined) the T/C (dose: 12.5 mg/kg/injection, schedule: Q01DX005 (ip), vehicle: saline with Tween-80) was 106 % of control, the T/C (dose: 25.0 mg/kg/injection, schedule: Q01DX005 (ip), vehicle: saline with Tween-80) was 110 % of control and the T/C (dose: 50.0 mg/kg/injection, schedule: Q01DX005 (ip), vehicle: saline with Tween-80) was 107 % of control and 124 % of control.

`O=Cc1c(-c2ccccc2)nc2sc(-c3ccc4c(c3)OCO4)nn12` was tested, and the T/C [2] was 102 % of control, the T/C [3] was 99 % of control and the T/C [4] was 99 % of control.

With `[Br][Pd][Br].[NH-]C1CCCC2CCC[N-]C12` (centres undefined) the T/C (dose: 12.5 mg/kg/injection, schedule: Q04DX002 (ip), vehicle: saline with Tween-80) was 93 % of control, the T/C (dose: 25.0 mg/kg/injection, schedule: Q04DX002 (ip), vehicle: saline with Tween-80) was 93 % of control and the T/C (dose: 50.0 mg/kg/injection, schedule: Q04DX002 (ip), vehicle: saline with Tween-80) was 98 % of control.

With `CN(C)CCNC1c2ccccc2CCc2ccccc21` the T/C (dose: 50.0 mg/kg/injection, schedule: Q01DX005 (ip), vehicle: saline) was 104 % of control and the T/C (dose: 100.0 mg/kg/injection, schedule: Q01DX005 (ip), vehicle: saline) was 100 % of control.

For `CCCCCCCCCCCCCCN1CCCN(CCCCCCCCCCCCCC)CC1`, the T/C [2] was 92 % of control, the T/C [3] was 94 % of control and the T/C [4] was 88 % of control.

`COC(=O)/C=C1/Nc2c(n(C)c(=O)n(C)c2=O)NC1=O` was tested, and the T/C (dose: 100.0 mg/kg/injection, schedule: Q04DX003 (ip), vehicle: saline) was 107 % of control, the T/C (dose: 200.0 mg/kg/injection, schedule: Q04DX003 (ip), vehicle: saline) was 94 % of control and the T/C (dose: 400.0 mg/kg/injection, schedule: Q04DX003 (ip), vehicle: saline) was 99 % of control.

In the case of `CC(=O)CCC1=C(O)C(C)=C(C)C(=O)C1=O`, the T/C (dose: 60.0 mg/kg/injection, schedule: Q01DX005 (ip), vehicle: Klucel (hydroxypropylcellulose) (HPC)) is reported as 103 % of control, the T/C (dose: 120.0 mg/kg/injection, schedule: Q01DX005 (ip), vehicle: Klucel (hydroxypropylcellulose) (HPC)) is reported as 115 % of control and the T/C (dose: 240.0 mg/kg/injection, schedule: Q01DX005 (ip), vehicle: Klucel (hydroxypropylcellulose) (HPC)) is reported as 109 % of control.

In the case of `COc1cccc2c1C(=O)c1c(O)c3c(c(O)c1C2=O)C[C@@](O)(/C(C)=N\NC(=O)CO)C[C@@H]3OC1CC(N)C(O)C(C)O1` (some centres undefined), the T/C (dose: 0.29 mg/kg/injection, schedule: Q04DX003 (ip), vehicle: saline) is reported as 118 % of control, the T/C (dose: 0.78 mg/kg/injection, schedule: Q01DX009 (ip), vehicle: water) is reported as 153 % of control and the T/C (dose: 1.0 mg/kg/injection, schedule: Q01DX009 (ip), vehicle: saline) is reported as 152 % of control. For the same molecule, the T/C (dose: 1.0 mg/kg/injection, schedule: Q04DX003 (ip), vehicle: saline) was 150 % of control, the T/C (dose: 1.32 mg/kg/injection, schedule: Q04DX003 (ip), vehicle: saline) was 150 % of control and the T/C (dose: 1.5 mg/kg/injection, schedule: Q01DX009 (ip), vehicle: saline) was 154 % of control. For the same molecule, the T/C (dose: 1.56 mg/kg/injection, schedule: Q01DX009 (ip), vehicle: water) was 160 % of control, the T/C (dose: 2.0 mg/kg/injection, schedule: Q01DX009 (ip), vehicle: water) was 166 % of control and the T/C (dose: 2.0 mg/kg/injection, schedule: Q04DX003 (ip), vehicle: saline) was 154 % of control. The T/C (dose: 2.25 mg/kg/injection, schedule: Q01DX009 (ip), vehicle: saline) was 189 % of control, the T/C (dose: 2.5 mg/kg/injection, schedule: Q04DX003 (ip), vehicle: water) was 119 % of control and the T/C (dose: 3.0 mg/kg/injection, schedule: Q04DX003 (ip), vehicle: saline) was 177 % of control. The T/C (dose: 3.13 mg/kg/injection, schedule: Q01DX009 (ip), vehicle: water) was 180 % of control, the T/C (dose: 4.0 mg/kg/injection, schedule: Q01DX009 (ip), vehicle: water) was 192 % of control and the T/C (dose: 5.0 mg/kg/injection, schedule: Q04DX003 (ip), vehicle: water) was 119 % of control. The T/C (dose: 6.25 mg/kg/injection, schedule: Q01DX009 (ip), vehicle: water) was 108 % of control, the T/C (dose: 40.0 mg/kg/injection, schedule: Q04DX003 (ip), vehicle: water) was 90 % of control and the T/C (dose: 80.0 mg/kg/injection, schedule: Q04DX003 (ip), vehicle: water) was 90 % of control and 96 % of control.

In the case of `C/C=C/N1C(=O)C2C=CC1C(C(=O)OC)=C2C(=O)OC` (centres undefined), the T/C (dose: 100.0 mg/kg/injection, schedule: Q01DX001 (ip), vehicle: saline) is reported as 100 % of control, the T/C (dose: 200.0 mg/kg/injection, schedule: Q01DX001 (ip), vehicle: saline) is reported as 99 % of control and the T/C (dose: 400.0 mg/kg/injection, schedule: Q01DX001 (ip), vehicle: saline) is reported as 94 % of control.

For `Cc1cccc(OCC(O)CNC(C)(C)C)c1C` (centres undefined), the T/C (dose: 12.5 mg/kg/injection, schedule: Q01DX009 (ip), vehicle: saline with Tween-80) was 99 % of control, the T/C (dose: 25.0 mg/kg/injection, schedule: Q01DX009 (ip), vehicle: saline with Tween-80) was 98 % of control and the T/C [5] was 99 % of control. For the same molecule, the T/C [6] was 99 % of control.

`Cc1cc(-c2ccccc2)c(C)c(-c2ccccc2)c1-c1ccccc1` was tested, and the T/C (dose: 100.0 mg/kg/injection, schedule: Q04DX002 (ip), vehicle: saline with Tween-80) was 99 % of control, the T/C (dose: 200.0 mg/kg/injection, schedule: Q04DX002 (ip), vehicle: saline with Tween-80) was 101 % of control and the T/C (dose: 400.0 mg/kg/injection, schedule: Q04DX002 (ip), vehicle: saline with Tween-80) was 96 % of control.

In the case of `Cc1ccc2ncccc2c1`, the T/C (dose: 50.0 mg/kg/injection, schedule: Q04DX003 (ip), vehicle: saline with Tween-80) is reported as 102 % of control, the T/C (dose: 100.0 mg/kg/injection, schedule: Q04DX003 (ip), vehicle: saline with Tween-80) is reported as 101 % of control and the T/C (dose: 200.0 mg/kg/injection, schedule: Q04DX003 (ip), vehicle: saline with Tween-80) is reported as 98 % of control.

In the case of `NC(=O)NC(CC(=O)O)C(=O)O` (centres undefined), the T/C [5] is reported as 92 % of control, the T/C [6] is reported as 101 % of control and the T/C (dose: 200.0 mg/kg/injection, schedule: Q01DX009 (ip), vehicle: saline with Tween-80) is reported as 106 % of control.

For `Nc1nc(N)c2nc(CNc3ccc(Cl)c(Cl)c3)cnc2n1`, the T/C (dose: 15.0 mg/kg/injection, schedule: Q01DX005 (ip), vehicle: saline with Tween-80) was 98 % of control and the T/C (dose: 30.0 mg/kg/injection, schedule: Q01DX005 (ip), vehicle: saline with Tween-80) was 89 % of control.

With `COc1ccc2oc(-c3ccc(Cl)cc3)c(N3CCN(C)CC3)c2c1` the T/C (dose: 60.0 mg/kg/injection, schedule: Q01DX005 (ip), vehicle: saline) was 102 % of control and 93 % of control and 97 % of control, the T/C (dose: 120.0 mg/kg/injection, schedule: Q01DX005 (ip), vehicle: saline) was 102 % of control and 103 % of control and 105 % of control and the T/C (dose: 240.0 mg/kg/injection, schedule: Q01DX005 (ip), vehicle: saline) was 122 % of control and 96 % of control.

With `COC(=O)C1(C(=O)OC)CCCC2=NOC3CCC1C23` (centres undefined) the T/C (dose: 6.25 mg/kg/injection, schedule: Q01DX002 (ip), vehicle: Klucel (hydroxypropylcellulose) (HPC)) was 107 % of control, the T/C (dose: 12.5 mg/kg/injection, schedule: Q01DX002 (ip), vehicle: Klucel (hydroxypropylcellulose) (HPC)) was 100 % of control and the T/C (dose: 25.0 mg/kg/injection, schedule: Q01DX002 (ip), vehicle: Klucel (hydroxypropylcellulose) (HPC)) was 93 % of control.
